Reference: US8183287B2, “Pharmaceutical formulations and compositions of a selective antagonist of either CXCR2 or both CXCR1 and CXCR2 and methods of using the same for treating inflammatory disorders” (Schering Corporation, priority 2006, dated 2012)

Experiment: clinical study in subjects with severe psoriasis
Type: in vivo, human
Settings: 28 days
Experimental: This study, illustrated schematically in FIG. 6A, was designed as a prospective, randomized, double-blind, placebo-controlled, parallel-group study in subjects with moderate to severe psoriasis.
Each treatment is administered for 28 days. After twelve patients have completed dosing, a determination is made on the progression of the study as outlined in FIG. 6B.
Clinical Assessment. At Screening, Baseline, and Days 1, 8, 15, 29, 36, and 57 the clinical psoriasis activity (PASI and physician global assessment) is determined for each patient.
Efficacy Analyses: The primary efficacy endpoint is the response defined as a ≧50% decrease from baseline in the PASI at the end of 28 days of treatment as well as PGA. The data for the secondary endpoints detailed below are listed and summarized by treatment group using descriptive statistics. Specifically, • percent reduction on Day 28 relative to baseline of psoriatic plaque cellularity, with subpopulation analysis of neutrophils (CD50, Cathepsin G) and T-lymphocytes (CD3+, CD4+, CD8+) • change from baseline in mRNA expression of Gro-α, IL-8, and CXCR2 in the psoriatic plaque and peripheral blood • change from baseline in plasma chemokine concentrations including Gro-α and IL-8

CC[C@@H](Nc1c(Nc2cccc(C(=O)N(C)C)c2O)c(=O)c1=O)c1ccc(C)o1 [Compound I]
PASI: reduction in PASI
